Experimental data reported in patent publication US12383519B2, “Application of CaMK4 in preparation of medicine for preventing and treating psoriasis” (priority 2021, dated 2025).

How the values were obtained:
[1] = system: IMQ-induced psoriasiform inflammation in mice; test: IMQ-induced mouse model of psoriasis, treatment with CaMK4 inhibitor KN-93; assay type: in vivo; conditions: KN-93 0.24 mg per mouse, tail vein, vs PBS control
Method: (§1) An internationally used mouse model of psoriasis was used: 6-8-week-old C57BL/6 mice were given 5% IMQ applied to the shaved back skin of the mice at 62.5 mg per day for 5 days. The 6-8-week-old C57BL/6 mice were used as controls.
(§2) 1) The back skin thickness, scaling and erythema development of mice were observed on days 0 -5 after applying IMQ to the shaved back skin of mice. According to the clinical psoriasis area and severity index, the severity of back skin was evaluated by thickness, scaling and erythema. The back skin thickness was measured with vernier calipers. Scaling and erythema were scored on a scale ranging from 0-4: 0 represents none; 1 represents mild; 2 represents moderate; 3 represents significant; and 4 represents very significant.
2) Skin sections were prepared for staining with H&E, and the skin sections were stained by using the conventional universal H&E staining method.
(§3) 3) Statistical analysis of epidermal thickness. Specifically, H&E-stained sections were photographed in a double-blind manner and then measured for epidermal thickness.
5) The mRNA levels of IMQ induced mouse skin pathogenic factors were detected by quantitative PCR. The method was the same as that in the example 1.
62.5 mg of IMQ were applied to the shaved back skin of wild-type mice for 5 days. KN-93 (0.24 mg per mouse) or PBS was injected into mice through tail vein one hour before IMQ application on day 0 and day 2. Samples were collected on day 5 for subsequent experiments.

[2] = system: IMQ-induced psoriasiform inflammation in mice; test: IMQ-induced mouse model of psoriasis, exogenous IL-10 injection; assay type: in vivo; conditions: IL-10 1 μg per mouse, tail vein, vs PBS control
Method: as §1, §2, §3
62.5 mg of IMQ were applied to the shaved back skin of wild-type (WT) mice for 5 days. IL-10 (1 μg per mouse) or PBS was injected into mice through tail vein on 1 h before IMQ application on day 0 and day 2. Samples were collected on day 5 for subsequent experiments.
1) The back skin thickness, scaling and erythema development of mice were observed on days 0 -5 after applying IMQ to the shaved back skin of mice, and scored. The method is the same as that in the example 2;
2) Statistical analysis of epidermal thickness was performed; the method is the same as that in the example 2.
3) The mRNA levels of IMQ induced mouse skin pathogenic factors were detected by quantitative PCR. The method was the same as that in the example 1.

| Molecule | scaling ([1]; day 0 and day 2) | skin thickness ([1]; day 0 and day 2) | psoriasiform phenotype ([1]; day 0 and day 2, IMQ 5 days) | epidermal thickness ([1]; H&E sections, day 5) | mRNA level of IL-10 in skin ([1]; day 5 skin) | proinflammatory cytokines (skin mRNA, quantitative PCR) ([1]; day 5 skin) | erythema ([2]; day 0 and day 2) | psoriasiform phenotype ([2]; day 0 and day 2) | scaling ([2]; day 0 and day 2) | skin thickness ([2]; day 0 and day 2) | epidermal thickness ([2]; day 5) | proinflammatory cytokines (skin mRNA, quantitative PCR) ([2]; day 5) |
| --- | --- | --- | --- | --- | --- | --- | --- | --- | --- | --- | --- | --- |
| COc1ccc(S(=O)(=O)N(CCO)c2ccccc2CN(C)C/C=C/c2ccc(Cl)cc2)cc1 [KN-93] | reduce | reduce | less than that of control mice | reduce | higher than that of control mice | reduce |  |  |  |  |  |  |
| IL-10: exogenous interleukin-10, central anti-inflammatory mediator, injected through tail vein (protein, UniProt P22301 19-178, looked up) Interleukin-10: SPGQGTQSENSCTHFPGNLPNMLRDLRDAFSRVKTFFQMKDQLDNLLLKESLLEDFKGYLGCQALSEMIQFYLEEVMPQAENQDPDIKAHVNSLGENLKTLRLRLRRCHRFLPCENKSKAVEQVKNAFNKLQEKGIYKAMSEFDIFINYIEAYMTMKIRN |  |  |  |  |  |  | reduced | attenuated | reduced | reduced | reduced | reduced |
